Test results as given in patent US12390437B2, “Itaconic acid derivatives and uses thereof intreating an inflammatory disease or a disease associated with an undesirable immune response” (Sitryx Therapeutics Limited, priority 2019, dated 2025).

Test system: not listed separately
Test: Hepatocyte stability assay (mouse)
Assay type: in vitro ADME
Conditions: cryopreserved hepatocytes, 10 μM compound, 0.5×10^6 cells/mL, 60 minutes, read-out: T½
Description: (§1) Defrosted cryo-preserved hepatocytes (viability >70%) are used to determine the metabolic stability of a compound via calculation of intrinsic clearance (Clint; a measure of the removal of a compound from the liver in the absence of blood flow and cell binding). Clearance data are particularly important for in vitro work as they can be used in combination with in vivo data to predict the half-life and oral bioavailability of a drug.
(§2) The metabolic stability in hepatocytes assay involves a time-dependent reaction using both positive and negative controls. The cells must be pre-incubated at 37° C. then spiked with test compound (and positive control); samples taken at pre-determined time intervals are analysed to monitor the change in concentration of the initial drug compound over 60 minutes. A buffer incubation reaction (with no hepatocytes present) acts as a negative control and two cocktail solutions, containing compounds with known high and low clearance values (verapamil/7-hydroxycoumarin and propranolol/diltiazem), act as positive controls. • 1. The assay is run with a cell concentration of 0.5×10^6 cells/mL in Leibovitz buffer. • 2. All compounds and controls are run in duplicate. • 3. Compound concentration is 10 μM. • 4. All compounds and controls are incubated with both cells and buffer to show turnover is due to hepatic metabolism. • 5. All wells on the incubation plate will have 326.7 μL of either cells or buffer added. • 6. Prior to assay, cell and buffer-only incubation plates are preincubated for 10 mins at 37° C. • 7. The assay is initiated by adding compounds, 3.3 μL of 1 mM in 10% DMSO-90% Buffer; final DMSO concentration is 0.1%. • 8. Samples are taken at regular timepoints (0, 5, 10, 20, 40, 60 min) until 60 mins. • 9. Sample volume is 40 μL and it is added to 160 μL of crash solvent (acetonitrile with internal standard) and stored on ice. • 10. At the end of the assay, the crash plates are centrifuged at 3500 rpm for 20 mins at 4° C. • 11. 80 μL of clear supernatant is removed and mixed with 80 μL of deionised water before being analysed by LC-MS/MS.
(§3) Raw LC-MS/MS data are exported to, and analysed in, Microsoft Excel for determination of intrinsic clearance. The percentage remaining of a compound is monitored using the peak area of the initial concentration as 100%. Intrinsic clearance and half-life values are calculated using a graph of the natural log of percentage remaining versus the time of reaction in minutes. Half-life (min) and intrinsic clearance (Clint in μL min^−1 10^−6 cells) values are calculated using the gradient of the graph (the elimination rate constant, k) and Equations 1 and 2.

Row | SMILES | half-life at 10 μM [min]
1 | C=C(CC(=O)OC1CCCCCCC1)C(=O)OC(C)c1nnn[nH]1 (centres unmarked) [Example 133, 1-(1-(1H-tetrazol-5-yl)ethyl) 4-cyclooctyl 2-methylenesuccinate] | 14
2 | C=C(CC(=O)OC1CCCCCCC1)C(=O)OCc1nnn[nH]1 [Example 134, 1-((1H-tetrazol-5-yl)methyl) 4-cyclooctyl 2-methylenesuccinate] | 7
3 | C=C(CC(=O)O[C@@H](CCCCCC)C(F)(F)F)C(=O)OCC(=O)O [Example 182, (S)-2-((2-methylene-4-oxo-4-((1,1,1-trifluorooctan-2-yl)oxy)butanoyl)oxy)acetic acid] | 9
4 | C=C(CC(=O)OC(C)(C)CCCCCC)C(=O)OCC(=O)O [Example 192, 2-((2-methylene-4-((2-methyloctan-2-yl)oxy)-4-oxobutanoyl)oxy)acetic acid] | 5

Further lines, results first:

Row | half-life at 10 μM [min] | SMILES
5 | 4 | C=C(CC(=O)O[C@@H](C)CCCCCC)C(=O)OCCc1nnn[nH]1 [Example 129, (S)-1-(2-(1H-tetrazol-5-yl)ethyl) 4-octan-2-yl 2-methylenesuccinate]
6 | < 3 | C=C(CC(=O)O[C@H](C)CCCCCC)C(=O)OCc1nn[nH]n1 [Example 161, (R)-1-((2H-tetrazol-5-yl)methyl) 4-(octan-2-yl) 2-methylenesuccinate]
7 | 5 | C=C(CC(=O)O[C@@H](C)CCCCCC)C(=O)OCc1nn[nH]n1 [Example 164, (S)-1-(2H-tetrazol-5-yl)methyl 4-octan-2-yl 2-methylenesuccinate]

Test system: hepatocytes
Test: Hepatocyte stability assay (mouse)
Assay type: in vitro ADME
Conditions: 10 μM compound, 0.5×10^6 cells/mL, 60 minutes
Description: as §1, §2, §3

Row | SMILES | CIint (μL min^−1 10^−6 cells)
8 | C=C(CC(=O)OC1CCCCCCC1)C(=O)OC(C)c1nnn[nH]1 (centres unmarked) [Example 133, 1-(1-(1H-tetrazol-5-yl)ethyl) 4-cyclooctyl 2-methylenesuccinate] | 107
9 | C=C(CC(=O)OC1CCCCCCC1)C(=O)OCc1nnn[nH]1 [Example 134, 1-((1H-tetrazol-5-yl)methyl) 4-cyclooctyl 2-methylenesuccinate] | 256
10 | C=C(CC(=O)O[C@@H](CCCCCC)C(F)(F)F)C(=O)OCC(=O)O [Example 182, (S)-2-((2-methylene-4-oxo-4-((1,1,1-trifluorooctan-2-yl)oxy)butanoyl)oxy)acetic acid] | 187
11 | C=C(CC(=O)OC(C)(C)CCCCCC)C(=O)OCC(=O)O [Example 192, 2-((2-methylene-4-((2-methyloctan-2-yl)oxy)-4-oxobutanoyl)oxy)acetic acid] | 350

More lines, now with the values ahead:

Row | CIint (μL min^−1 10^−6 cells) | SMILES
12 | 378 | C=C(CC(=O)O[C@@H](C)CCCCCC)C(=O)OCCc1nnn[nH]1 [Example 129, (S)-1-(2-(1H-tetrazol-5-yl)ethyl) 4-octan-2-yl 2-methylenesuccinate]
13 | >460 | C=C(CC(=O)O[C@H](C)CCCCCC)C(=O)OCc1nn[nH]n1 [Example 161, (R)-1-((2H-tetrazol-5-yl)methyl) 4-(octan-2-yl) 2-methylenesuccinate]
14 | 259 | C=C(CC(=O)O[C@@H](C)CCCCCC)C(=O)OCc1nn[nH]n1 [Example 164, (S)-1-(2H-tetrazol-5-yl)methyl 4-octan-2-yl 2-methylenesuccinate]

Test system: IL-1β cytokine output from THP-1s
Test: THP-1 AlphaLISA IL-1β cytokine assay
Assay type: cell-based, human
Conditions: Homo sapiens, THP-1, PMA-differentiated THP-1 cells, LPS 24 hr then Nigericin 1 hour; read-out: IL-1β (IC50)
Method in brief: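 PMA-differentiated (72 h) THP-1 cells pretreated 30 min with compound, LPS-stimulated 24 h, then nigericin 1 h at 37 °C. Supernatant IL-1β and IL-6 by AlphaLISA; % inhibition normalised to ±LPS controls, IC50 from concentration-response curves.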

Row | SMILES | IC50 [µM]
15 | C=C(CC(=O)OC1CCCCCCC1)C(=O)OC(C)c1nnn[nH]1 (centres unmarked) [Example 133, 1-(1-(1H-tetrazol-5-yl)ethyl) 4-cyclooctyl 2-methylenesuccinate] | 14.8
16 | C=C(CC(=O)OC1CCCCCCC1)C(=O)OCc1nnn[nH]1 [Example 134, 1-((1H-tetrazol-5-yl)methyl) 4-cyclooctyl 2-methylenesuccinate] | 9.8
17 | C=C(CC(=O)O[C@@H](CCCCCC)C(F)(F)F)C(=O)OCC(=O)O [Example 182, (S)-2-((2-methylene-4-oxo-4-((1,1,1-trifluorooctan-2-yl)oxy)butanoyl)oxy)acetic acid] | 6.1
18 | C=C(CC(=O)OC(C)(C)CCCCCC)C(=O)OCC(=O)O [Example 192, 2-((2-methylene-4-((2-methyloctan-2-yl)oxy)-4-oxobutanoyl)oxy)acetic acid] | 10.6

Next, values leading:

Row | IC50 [µM] | SMILES
19 | 5.5 | C=C(CC(=O)O[C@@H](C)CCCCCC)C(=O)OCCc1nnn[nH]1 [Example 129, (S)-1-(2-(1H-tetrazol-5-yl)ethyl) 4-octan-2-yl 2-methylenesuccinate]
20 | 6.8 | C=C(CC(=O)O[C@H](C)CCCCCC)C(=O)OCc1nn[nH]n1 [Example 161, (R)-1-((2H-tetrazol-5-yl)methyl) 4-(octan-2-yl) 2-methylenesuccinate]
21 | 2 | C=C(CC(=O)O[C@@H](C)CCCCCC)C(=O)OCc1nn[nH]n1 [Example 164, (S)-1-(2H-tetrazol-5-yl)methyl 4-octan-2-yl 2-methylenesuccinate]

Test system: NRF2
Test: NRF2 +/-GSH activation assay (DiscoverX PathHunter NRF2 translocation kit, U2OS cells)
Assay type: cell-based
Conditions: Homo sapiens, U2OS; normalised to dimethyl fumarate 'High' control; GSH condition not stated in Table 5; read-out: NRF2 activation Emax
Method in brief: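 PathHunter U2OS cells, plated 24 hrs, measured NRF2 nuclear translocation by enzyme-fragment complementation luminescence after 6 hours compound exposure at 37 °C. For +GSH, compound was pre-incubated 30 minutes with GSH (6 mM working stock). EC50 from % activation normalised to dimethyl fumarate high control.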

Row | SMILES | Emax [%]
22 | C=C(CC(=O)O[C@@H](C)CCCCCC)C(=O)OCCc1nnn[nH]1 [Example 129, (S)-1-(2-(1H-tetrazol-5-yl)ethyl) 4-octan-2-yl 2-methylenesuccinate] | 178
23 | C=C(CC(=O)OC1CCCCCCC1)C(=O)OC(C)c1nnn[nH]1 (centres unmarked) [Example 133, 1-(1-(1H-tetrazol-5-yl)ethyl) 4-cyclooctyl 2-methylenesuccinate] | 227
24 | C=C(CC(=O)OC1CCCCCCC1)C(=O)OCc1nnn[nH]1 [Example 134, 1-((1H-tetrazol-5-yl)methyl) 4-cyclooctyl 2-methylenesuccinate] | 183
25 | C=C(CC(=O)O[C@H](C)CCCCCC)C(=O)OCc1nn[nH]n1 [Example 161, (R)-1-((2H-tetrazol-5-yl)methyl) 4-(octan-2-yl) 2-methylenesuccinate] | 146
26 | C=C(CC(=O)O[C@@H](C)CCCCCC)C(=O)OCc1nn[nH]n1 [Example 164, (S)-1-(2H-tetrazol-5-yl)methyl 4-octan-2-yl 2-methylenesuccinate] | 168
27 | C=C(CC(=O)O[C@@H](CCCCCC)C(F)(F)F)C(=O)OCC(=O)O [Example 182, (S)-2-((2-methylene-4-oxo-4-((1,1,1-trifluorooctan-2-yl)oxy)butanoyl)oxy)acetic acid] | 188
28 | C=C(CC(=O)OC(C)(C)CCCCCC)C(=O)OCC(=O)O [Example 192, 2-((2-methylene-4-((2-methyloctan-2-yl)oxy)-4-oxobutanoyl)oxy)acetic acid] | 194

Same assay, conditions: Homo sapiens; U2OS PathHunter cells, 6 hours; GSH condition not stated in Table 5; read-out: NRF2 activation EC50

Row | SMILES | EC50 [µM]
29 | C=C(CC(=O)OC1CCCCCCC1)C(=O)OC(C)c1nnn[nH]1 (centres unmarked) [Example 133, 1-(1-(1H-tetrazol-5-yl)ethyl) 4-cyclooctyl 2-methylenesuccinate] | 33.3
30 | C=C(CC(=O)OC1CCCCCCC1)C(=O)OCc1nnn[nH]1 [Example 134, 1-((1H-tetrazol-5-yl)methyl) 4-cyclooctyl 2-methylenesuccinate] | 20
31 | C=C(CC(=O)O[C@@H](CCCCCC)C(F)(F)F)C(=O)OCC(=O)O [Example 182, (S)-2-((2-methylene-4-oxo-4-((1,1,1-trifluorooctan-2-yl)oxy)butanoyl)oxy)acetic acid] | 5.5
32 | C=C(CC(=O)OC(C)(C)CCCCCC)C(=O)OCC(=O)O [Example 192, 2-((2-methylene-4-((2-methyloctan-2-yl)oxy)-4-oxobutanoyl)oxy)acetic acid] | 11.8

Results, then the compound that gave them:

Row | EC50 [µM] | SMILES
33 | 5.8 | C=C(CC(=O)O[C@@H](C)CCCCCC)C(=O)OCCc1nnn[nH]1 [Example 129, (S)-1-(2-(1H-tetrazol-5-yl)ethyl) 4-octan-2-yl 2-methylenesuccinate]
34 | 5 | C=C(CC(=O)O[C@H](C)CCCCCC)C(=O)OCc1nn[nH]n1 [Example 161, (R)-1-((2H-tetrazol-5-yl)methyl) 4-(octan-2-yl) 2-methylenesuccinate]
35 | 4.9 | C=C(CC(=O)O[C@@H](C)CCCCCC)C(=O)OCc1nn[nH]n1 [Example 164, (S)-1-(2H-tetrazol-5-yl)methyl 4-octan-2-yl 2-methylenesuccinate]
